{"source": "patent US20110052648A1", "about": "“ORAL MODIFIED-RELEASE FORMULATIONS CONTAINING THIAZEPINES” (priority 2008, published 2011)", "origin": "cited, not measured here", "data": [{"smiles": "OCCOCCN1CCN(C2=Nc3ccccc3Sc3ccccc32)CC1", "note": "[Quetiapine, 11-[4-[2-(2-hydroxyethoxy)ethyl]-1-piperazinyl]dibenzo[b,f][1,4]-thiazepine]", "values": [{"measurement": "solubility in water", "result": "moderately soluble"}]}]}
